Data reported in patent US20160296499A1, “Spiroindoline Antiparasitic Derivatives” (ZOETIS SERVICES LLC, priority 2013, published 2016).
Like-named read-outs stand apart in the source and are kept apart here.

Experiments:
[1] = tested on: Haemonchus contortus L3; experiment: Haemonchus contortus, Larvae Stage 3 (HcL3) In Vitro Assay; conditions: Haemonchus contortus
[2] = tested on: Dirofilaria immitis microfilariae; experiment: Dirofilaria immitis, Microfilariae (DiMF) In Vitro Assay; conditions: Dirofilaria immitis
[3] = target: T1, bovine vesicular acetylcholine transporter (VAChT) (Bos taurus, UniProt E1BK36); experiment: Radioligand Binding Assay; conditions: Bovine binding Ki, CHO-K1 membranes with recombinant bovine VAChT, [3H]Compound X6 0.3 nM
T1 sequence (E1BK36 1-524): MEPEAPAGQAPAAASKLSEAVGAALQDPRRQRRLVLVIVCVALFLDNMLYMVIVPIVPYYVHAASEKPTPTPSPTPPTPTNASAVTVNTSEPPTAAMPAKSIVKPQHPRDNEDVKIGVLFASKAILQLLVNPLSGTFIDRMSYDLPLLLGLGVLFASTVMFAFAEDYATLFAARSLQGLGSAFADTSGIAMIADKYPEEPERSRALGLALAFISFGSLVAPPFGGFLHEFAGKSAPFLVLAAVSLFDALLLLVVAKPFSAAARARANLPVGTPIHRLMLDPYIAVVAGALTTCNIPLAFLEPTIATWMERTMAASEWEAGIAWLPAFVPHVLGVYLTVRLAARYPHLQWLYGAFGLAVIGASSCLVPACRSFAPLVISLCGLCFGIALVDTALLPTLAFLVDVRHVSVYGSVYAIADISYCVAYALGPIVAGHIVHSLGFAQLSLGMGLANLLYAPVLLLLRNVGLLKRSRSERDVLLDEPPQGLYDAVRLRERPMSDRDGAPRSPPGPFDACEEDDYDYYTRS
Method: To measure binding affinity, CHO-K1 cells recombinantly expressing the bovine VAChT was generated as a stable cell line and subsequently used to produce membrane preparations.
Radioligand binding assays were conducted in disposable polypropylene 96-well plates. VAChT competition assays were initiated by the addition of bovine recombinant membrane homogenate (50 μg/well) in assay buffer (50 mM Tris-HCl, 120 mM NaCl, 5 mM KCl, 1 mM MgCl, and 2 mM CaCl, pH 7.4) containing [^3H]Compound X6 (0.3 nM) with or without competing ligand. The assay was allowed to equilibrate for 120 minutes at room temperature, before being filtered onto GF/C unifilter plates pre-coated in 0.3% polyethylenimine (Perkin Elmer Life and Analytical Sciences, Boston, Mass.) with a Filtermate 96 harvester (PerkinElmer Life and Analytical Sciences). Filters were washed in ice-cold 50 mM Tris-HCl, pH 7.4 buffer and then counted for radioactivity in a TopCount microplate scintillation counter after addition of 50 μL Microscint 20 (PerkinElmer). Non-specific binding was measured in the presence of 10 μM Compound X6. Apparent dissociation constants (Ki values) from the competition experiments were calculated using an iterative nonlinear regression curve-fitting program (GraphPAD Prism 6.0 Software, San Diego, Calif.) and are reported in Table 2.

[4] = 96 h, read-out: HcL3 MEC, Minimal Effective Concentration whereby worm motility is inhibited by approximately 70%, 37° C., tested 0.001-100 μM
[5] = 72 h, read-out: Di MF, MEC, decrease in microfilariae motility by visual assessment, curve starting at 100 μM
[6] = 96 hours, 37° C., read-out: HcL3 MEC

| SMILES | minimal effective concentration [1, 4] [µM] | minimal effective concentration [2, 5] [µM] | Ki [3] [µM] | minimal effective concentration [1, 6] [µM] | minimal effective concentration ([2]; 72 hours, read-out: Di MF) [µM] |
| --- | --- | --- | --- | --- | --- |
| COc1cc2c(cn1)C1(CCN(C/C=C/c3ccc(Cl)c(Cl)c3)CC1)CN2C(=O)NCc1ccnc(Cl)c1 [Example 65, (E)-N-((2-chloropyridin-4-yl)methyl)-1-(3-(3,4-dichlorophenyl)allyl)-6′-methoxyspiro[piperidine-4,3′-pyrrolo[3,2-c]pyridine]-1′(2′H)-carboxamide] | 3.3 | 1.8 | 0.0494 | – | – |
| N#Cc1cc2c(cn1)N(C(=O)NCc1ccnc(Cl)c1)CC21CCN(C/C=C/c2ccc(Cl)c(Cl)c2)CC1 [Example 66, (E)-N-((2-chloropyridin-4-yl)methyl)-5′-cyano-1-(3-(3,4-dichlorophenyl)allyl)spiro[piperidine-4,3′-pyrrolo[2,3-c]pyridine]-1′(2′H)-carboxamide] | 1.8 | 10 | 0.0241 | – | – |
| N#Cc1ccc2c(n1)C1(CCN(C/C=C/c3ccc(Cl)c(Cl)c3)CC1)CN2C(=O)NCc1ccnc(Cl)c1 [Example 67, (E)-N-((2-chloropyridin-4-yl)methyl)-5′-cyano-1-(3-(3,4-dichlorophenyl)allyl)spiro[piperidine-4,3′-pyrrolo[3,2-b]pyridine]-1′(2′H)-carboxamide] | 10 | 5.7 | 0.0335 | – | – |
| COc1nccc2c1C1(CCN(C/C=C/c3ccc(Cl)c(Cl)c3)CC1)CN2C(=O)NCc1ccnc(Cl)c1 [Example 68, (E)-N-((2-chloropyridin-4-yl)methyl)-1-(3-(3,4-dichlorophenyl)allyl)-4′-methoxyspiro[piperidine-4,3′-pyrrolo[3,2-c]pyridine]-1′(2′H)-carboxamide] | 33 | 1.3 | 0.815 | – | – |
| O=C(NCc1ccnc(F)c1)N1CC2(CCN(C/C=C/c3ccc(Cl)cc3)CC2)c2cc(F)c(Cl)cc21 [Example 69, (E)-6-chloro-1′-(3-(4-chlorophenyl)allyl)-5-fluoro-N-((2-fluoropyridin-4-yl)methyl)spiro[indoline-3,4′-piperidine]-1-carboxamide] | 2.5 | 6.5 | 0.0552 | – | – |
| O=C(NCc1ccnc(F)c1)N1CC2(CCN(C/C=C/c3ccc(Cl)cc3)CC2)c2cc(Cl)c(Cl)cc21 [Example 70, (E)-5,6-dichloro-1′-(3-(4-chlorophenyl)allyl)-N-((2-fluoropyridin-4-yl)methyl)spiro[indoline-3,4′-piperidine]-1-carboxamide] | 3.3 | 7.6 | 0.252 | – | – |
| O=C(NCc1ccnc(F)c1)N1CC2(CCN(C/C=C/c3ccc(Cl)cc3)CC2)c2cc(Cl)c(F)cc21 [Example 71, (E)-5-chloro-1′-(3-(4-chlorophenyl)allyl)-6-fluoro-N-((2-fluoropyridin-4-yl)methyl)spiro[indoline-3,4′-piperidine]-1-carboxamide] | 3.3 | 3.3 | 0.0314 | – | – |
| N#Cc1ccc(/C=C/CN2CCC3(CC2)CN(C(=O)NCc2ccnc(Cl)c2)c2cc(C(F)(F)F)c(Cl)cc23)cc1 [Example 72, (E)-5-chloro-N-((2-chloropyridin-4-yl)methyl)-1′-(3-(4-cyanophenyl)allyl)-6-(trifluoromethyl)spiro[indoline-3,4′-piperidine]-1-carboxamide] | 10 | 3.3 | 0.027 | – | – |
| O=C(NCc1ccnc(F)c1)N1CC2(CCN(C/C=C/c3ccc(Cl)cc3)CC2)c2ccc(-c3ccccc3OC(F)(F)F)cc21 [Example 73, (E)-1′-(3-(4-chlorophenyl)allyl)-N-((2-fluoropyridin-4-yl)methyl)-6-(2-(trifluoromethoxy)phenyl)spiro[indoline-3,4′-piperidine]-1-carboxamide] | 100 | 3.3 | 0.0295 | – | – |
| O=C(NCc1ccnc(Cl)c1)N1CC2(CCN(C/C=C/c3ccc(Cl)cc3)CC2)c2cc(-n3ccccc3=O)ccc21 [Example 74, (E)-1′-(3-(4-chlorophenyl)allyl)-N-((2-chloropyridin-4-yl)methyl)-5-(2-oxopyridin-1(2H)-yl)spiro[indoline-3,4′-piperidine]-1-carboxamide] | 100 | 2.4 | 11.6 | – | – |
| O=C(NCc1ccnc(F)c1)N1CC2(CCN(C/C=C/c3ccc(Cl)cc3)CC2)c2cc(-n3ccccc3=O)ccc21 [Example 75, (E)-1′-(3-(4-chlorophenyl)allyl)-N-((2-fluoropyridin-4-yl)methyl)-5-(2-oxopyridin-1(2H)-yl)spiro[indoline-3,4′-piperidine]-1-carboxamide] | 100 | 4.4 | 11.6 | – | – |
| O=C(NCc1ccnc(Cl)c1)N1CC2(CCN(C/C=C/c3ccc(Cl)cc3)CC2)c2cc(N3CCCC3)ccc21 [Example 76, (E)-1′-(3-(4-chlorophenyl)allyl)-N-((2-chloropyridin-4-yl)methyl)-5-(pyrrolidin-1-yl)spiro[indoline-3,4′-piperidine]-1-carboxamide] | 100 | 1.8 | 1.42 | – | – |
| O=C(NCc1ccnc(F)c1)N1CC2(CCN(C/C=C/c3ccc(Cl)cc3)CC2)c2cc(OC(F)(F)F)ccc21 [Example 77, (E)-1′-(3-(4-chlorophenyl)allyl)-N-((2-fluoropyridin-4-yl)methyl)-5-(trifluoromethoxy)spiro[indoline-3,4′-piperidine]-1-carboxamide] | – | – | 0.87 | 5.7 | 3.3 |
| O=C(NCc1ccnc(Cl)c1)N1CC2(CCN(C/C=C/c3ccc(Cl)cc3)CC2)c2cc(S(=O)(=O)C(F)(F)F)ccc21 [Example 78, (E)-1′-(3-(4-chlorophenyl)allyl)-N-((2-chloropyridin-4-yl)methyl)-5-(trifluoromethylsulfonyl)spiro[indoline-3,4′-piperidine]-1-carboxamide] | 100 | 1 | 1.29 | – | – |
| CS(=O)(=O)c1ccc2c(c1)C1(CCN(C/C=C/c3ccc(Cl)cc3)CC1)CN2C(=O)NCc1ccnc(Cl)c1 [Example 79, (E)-1′-(3-(4-chlorophenyl)allyl)-N-((2-chloropyridin-4-yl)methyl)-5-(methylsulfonyl)spiro[indoline-3,4′-piperidine]-1-carboxamide] | 100 | 10 | 11.3 | – | – |
| O=C(NCc1ccnc(Cl)c1)N1CC2(CCN(C/C=C/c3ccc(Cl)cc3)CC2)c2cc(SC(F)(F)F)ccc21 [Example 80, (E)-1′-(3-(4-chlorophenyl)allyl)-N-((2-chloropyridin-4-yl)methyl)-5-(trifluoromethylthio)spiro[indoline-3,4′-piperidine]-1-carboxamide] | 100 | 10 | 0.191 | – | – |
| O=C(NCc1ccnc(Cl)c1)N1CC2(CCN(C/C=C/c3ccc(Cl)cc3)CC2)c2cc(-c3nccs3)ccc21 [Example 81, (E)-1′-(3-(4-chlorophenyl)allyl)-N-((2-chloropyridin-4-yl)methyl)-5-(thiazol-2-yl)spiro[indoline-3,4′-piperidine]-1-carboxamide] | 100 | 7.6 | 0.308 | – | – |
| O=C(NCc1ccnc(F)c1)N1CC2(CCN(C/C=C/c3ccc(Cl)cc3)CC2)c2cc(C(F)(F)F)ccc21 [Example 82, (E)-1′-(3-(4-chlorophenyl)allyl)-N-((2-fluoropyridin-4-yl)methyl)-5-(trifluoromethyl)spiro[indoline-3,4′-piperidine]-1-carboxamide] | 7.6 | 4.4 | 0.572 | – | – |
| O=C(NCc1ccnc(F)c1)N1CC2(CCN(C/C=C/c3ccc(Cl)cc3)CC2)c2cc(-c3cc[nH]c(=O)c3)ccc21 [Example 83, (E)-1′-(3-(4-chlorophenyl)allyl)-N-((2-fluoropyridin-4-yl)methyl)-5-(2-oxo-1,2-dihydropyridin-4-yl)spiro[indoline-3,4′-piperidine]-1-carboxamide] | 100 | 6.9 | 11.2 | – | – |
| O=C(NCc1ccnc(F)c1)N1CC2(CCN(C/C=C/c3ccc(Cl)cc3)CC2)c2cc(C3CC3)ccc21 [Example 84, (E)-1′-(3-(4-chlorophenyl)allyl)-5-cyclopropyl-N-((2-fluoropyridin-4-yl)methyl)spiro[indoline-3,4′-piperidine]-1-carboxamide] | – | – | 0.68 | 100 | 3.3 |
| O=C(NCc1cnc(Cl)s1)N1CC2(CCN(C/C=C/c3ccc(Cl)cc3)CC2)c2cc(C(F)(F)F)ccc21 [Example 85, (E)-1′-(3-(4-chlorophenyl)allyl)-N-((2-chlorothiazol-5-yl)methyl)-5-(trifluoromethyl)spiro[indoline-3,4′-piperidine]-1-carboxamide] | – | – | 0.226 | 18.2 | 10 |
